Values quoted from earlier work as cited in US11903955B2, “Methods of treating heart failure with reduced ejection fraction” (ASTRAZENECA AB, priority 2019, dated 2024).

Tests used:
[1] = tested on: patients with systolic heart failure; details: after 12 months of treatment, SHIFT; cited from earlier work
patients with HFrEF = details: after 8 months of treatment, PARADIGM-HF; cited from earlier work

**Q.** Which “mean improvement in KCCQ-CSS” value [1] does the source give for `COc1cc2c(cc1OC)CC(=O)N(CCCN(C)C[C@H]1Cc3cc(OC)c(OC)cc31)CC2` [ivabradine] here?
**A.** Its value is 1.8 point.

**Q.** And the “mean improvement in KCCQ-OSS” value [1]?
**A.** The value was 2.4 point.

**Q.** With sacubitril-valsartan as the compound, how does the “improvement in KCCQ-CS over enalapril” value (patients with HFrEF) read?
**A.** The value was 0.9 point.

**Q.** And the “improvement in KCCQ-OS over enalapril” value (patients with HFrEF)?
**A.** The value was 1.3 point.
